# Reference: patent US6825209B2, “Compounds having unique CB1 receptor binding selectivity and methods for their production and use” (Research Triangle Institute, priority 2002, dated 2004)
# Target: T1, CB1 receptor (Rattus norvegicus, UniProt P20272)
# T1 construct: Whole rat brains or dissected regions from live CD rats; tissue Charles River or Pel-Freez Biologicals; host or cells: whole rat brain (CD rats), P2 membrane
# Assay: Radioligand displacement in whole rat brain (CB1) membrane preparations
# Type: binding
# Settings: Ki, displacement of 3H-CP55940, whole rat brain; 3H-CP55940; Table 4, parallel synthesis analogs, n = 1, concentration assumes 100% yield
# Excerpt: CB1 receptor affinity in rat brain.
# Methods—membrane preparation from brain. The methods for tissue preparation are essentially those described by Devane et al. (1988) as modified by Compton et al. (1993) and later by Thomas et al. (1998). Whole rat brains or dissected regions from live CD rats from Charles River or Pel-Freez Biologicals (Rogers, Ark.), or human brain sections obtained from the National Disease Research Institute, were allowed to thaw to room temperature on ice. Both whole brain and dissected brain regions were used because different brain regions may express different cannabinoid receptor subtypes (Skaper et al., 1996; Thomas et al., 1998). The tissue was homogenized with a Kontes Potter-Elvehjem glass-Teflon grinding system (Fisher Scientific, Springfield, N.J.) in buffer 1 (320 mM sucrose, 2 mM EDTA, 5 mM MgCl2. The homogenate was centrifuged at 1600 g for 10 min. The supernatant was saved and combined with the two subsequent supernatants obtained from washing and 1600 g centrifugation of the P1 pellet. The combined supernatant fractions were then centrifuged at 39,000 g for 15 min. The P2 pellet was resuspended in 50 mL of buffer 2 (50 mM Tris.HCl, 2 mM EDTA, 5 mM MgCl2, pH 7.0), incubated at 37° C. for 10 min, then centrifuged at 23,000 g for 10 min. The P2 membrane was resuspended in 50 mL of buffer 2, incubated at 30° C. for 40 min, then centrifuged at 11,000 g for 15 min. The final wash-treated P2 pellet was resuspended in assay buffer 3 (50 mM Tris.HCl, 1 mM EDTA, 3 MM MgCl2, pH 7.4). Protein concentrations were determined by the method of Bradford (1976) using Coomassie brilliant blue dye (Bio-Rad, Richmond, Calif.) and BSA standards (bovine serum albumin, fatty acid free, Sigma Chemical Co., St. Louis, Mo.) prepared in assay buffer 3. The membrane preparation was divided into aliquots and stored at −80° C. For use in the binding assay, an aliquot of frozen membranes was thawed on ice and diluted to a concentration of ca. 0.2 mg/mL in assay buffer.
# Methods—binding assay in brain membrane preparation. The methods for ligand binding are essentially those described by Devane et al. (1988) with the exception that we used a filtration assay. […] All cannabinoid analogs were prepared by suspension in buffer A from a 1-5 mg/mL ethanolic stock. Following incubation at 30° C. for 1 h, binding was terminated by vacuum filtration through pretreated filters in a 96-well sampling manifold (Millipore, Bedford, Mass.). Reaction vessels were washed at least 3 times with 1 mL of ice cold buffer B (50 mM Tris.HCl, 1 mg/mL BSA). The filter plates were air-dried and sealed on the bottom. Liquid scintillant was added to the wells and the top sealed. After incubating the plates in cocktail for at least 2 h, the radioactivity present was determined by liquid scintillation spectrometry. Assays were done in duplicate, and results represent the combined data of three to six independent experiments. All assays were performed in polypropylene test tubes. The GF/C glassfiber filter plates (Packard, Meriden, Conn.) were pretreated in buffer B for at least 1 h.
# (§1) Data analysis. Saturation and displacement data were analyzed by unweighted nonlinear regression of receptor binding data. For displacement studies, curve-fitting and IC50 calculation were done with GraphPad Prism (GraphPad Software, Inc., San Diego, Calif.), which fits the data to one and two-site models and compares the two fits statistically. A similar approach was used for the analysis of isotherm data for calculation of Kd's. A two-site fit was accepted only if it was statistically significant (p<0.05) and the following results were not observed:
# (§2) IC50 values were then converted to Ki values by reported methods (Cheng and Prusoff, 1973). The statistical evaluation of curve-fitting data allowed for a non-arbitrary conclusion based on the displacement data.
# T1 sequence (P20272 whole entry): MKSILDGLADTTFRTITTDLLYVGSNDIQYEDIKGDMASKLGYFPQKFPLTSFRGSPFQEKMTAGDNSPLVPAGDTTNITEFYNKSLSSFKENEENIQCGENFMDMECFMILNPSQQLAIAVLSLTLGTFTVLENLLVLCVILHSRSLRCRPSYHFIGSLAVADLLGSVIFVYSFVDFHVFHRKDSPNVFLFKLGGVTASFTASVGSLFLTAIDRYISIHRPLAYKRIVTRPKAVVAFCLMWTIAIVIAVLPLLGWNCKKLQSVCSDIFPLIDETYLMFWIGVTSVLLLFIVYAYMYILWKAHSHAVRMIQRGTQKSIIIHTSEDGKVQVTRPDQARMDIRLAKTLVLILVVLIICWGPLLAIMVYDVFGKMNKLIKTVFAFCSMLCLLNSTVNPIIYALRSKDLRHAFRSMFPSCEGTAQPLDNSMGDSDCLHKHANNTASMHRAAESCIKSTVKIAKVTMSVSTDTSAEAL
row,Compound,Ki
1,CCCCCCC(C)NC(=O)c1nn(-c2ccc(Cl)cc2Cl)c(-c2ccc(Cl)cc2)c1C (centres unmarked) [AKS-10262-4],26.2 nM
2,CCCCCCCCCCCCNC(=O)c1nn(-c2ccc(Cl)cc2Cl)c(-c2ccc(Cl)cc2)c1C [BT-2],109 nM
3,CCC(C)CC(C)NC(=O)c1nn(-c2ccc(Cl)cc2Cl)c(-c2ccc(Cl)cc2)c1C (centres unmarked) [AKS-10262-6],9.6 nM

# Same assay, conditions: Ki, displacement of 3H-SR141716A, whole rat brain; 3H-SR141716A; Table 4, parallel synthesis analogs, n = 1, concentration assumes 100% yield
row,Compound,Ki
1,CCCCCCC(C)NC(=O)c1nn(-c2ccc(Cl)cc2Cl)c(-c2ccc(Cl)cc2)c1C (centres unmarked) [AKS-10262-4],10.8 nM
2,CCCCCCCCCCCCNC(=O)c1nn(-c2ccc(Cl)cc2Cl)c(-c2ccc(Cl)cc2)c1C [BT-2],53.7 nM
3,CCC(C)CC(C)NC(=O)c1nn(-c2ccc(Cl)cc2Cl)c(-c2ccc(Cl)cc2)c1C (centres unmarked) [AKS-10262-6],2.3 nM

# Same assay, conditions: Ki, displacement of 3H-WIN55212-2, whole rat brain; 3H-WIN55212-2; Table 4, parallel synthesis analogs, n = 1, concentration assumes 100% yield
row,Compound,Ki
1,CCCCCCC(C)NC(=O)c1nn(-c2ccc(Cl)cc2Cl)c(-c2ccc(Cl)cc2)c1C (centres unmarked) [AKS-10262-4],5.8 nM
2,CCCCCCCCCCCCNC(=O)c1nn(-c2ccc(Cl)cc2Cl)c(-c2ccc(Cl)cc2)c1C [BT-2],238 nM
3,CCC(C)CC(C)NC(=O)c1nn(-c2ccc(Cl)cc2Cl)c(-c2ccc(Cl)cc2)c1C (centres unmarked) [AKS-10262-6],13.7 nM

# Same assay, conditions: whole rat brain; 3H-CP55940; Table 4, parallel synthesis analogs, n = 1
row,Compound,"Max. Disp. %, 3H-CP55940"
1,CCCCCCC(C)NC(=O)c1nn(-c2ccc(Cl)cc2Cl)c(-c2ccc(Cl)cc2)c1C (centres unmarked) [AKS-10262-4],83.9%
2,CCCCCCCCCCCCNC(=O)c1nn(-c2ccc(Cl)cc2Cl)c(-c2ccc(Cl)cc2)c1C [BT-2],82.6%
3,CCC(C)CC(C)NC(=O)c1nn(-c2ccc(Cl)cc2Cl)c(-c2ccc(Cl)cc2)c1C (centres unmarked) [AKS-10262-6],91.4%

# Same assay, conditions: whole rat brain; 3H-SR141716A; Table 4, parallel synthesis analogs, n = 1
row,Compound,"Max. Disp. %, 3H-SR141716A"
1,CCCCCCC(C)NC(=O)c1nn(-c2ccc(Cl)cc2Cl)c(-c2ccc(Cl)cc2)c1C (centres unmarked) [AKS-10262-4],91.3%
2,CCCCCCCCCCCCNC(=O)c1nn(-c2ccc(Cl)cc2Cl)c(-c2ccc(Cl)cc2)c1C [BT-2],95.6%
3,CCC(C)CC(C)NC(=O)c1nn(-c2ccc(Cl)cc2Cl)c(-c2ccc(Cl)cc2)c1C (centres unmarked) [AKS-10262-6],96.3%

# Same assay, conditions: whole rat brain; 3H-WIN55212-2; Table 4, parallel synthesis analogs, n = 1
row,Compound,"Max. Disp. %, 3H-WIN55212-2"
1,CCCCCCC(C)NC(=O)c1nn(-c2ccc(Cl)cc2Cl)c(-c2ccc(Cl)cc2)c1C (centres unmarked) [AKS-10262-4],53.7%
2,CCCCCCCCCCCCNC(=O)c1nn(-c2ccc(Cl)cc2Cl)c(-c2ccc(Cl)cc2)c1C [BT-2],56.5%
3,CCC(C)CC(C)NC(=O)c1nn(-c2ccc(Cl)cc2Cl)c(-c2ccc(Cl)cc2)c1C (centres unmarked) [AKS-10262-6],89.9%

# Target: T2, human CB1 receptor (Homo sapiens, UniProt P21554)
# T2 construct: expressed in transfected cells; host or cells: HEK-293
# Assay: Radioligand displacement in human CB1 receptor-transfected cells (HEK-293)
# Type: binding
# Settings: not given
# Method: Human CB1 receptor affinity. The alkyl amide analogs of the present invention were examined using transfected cell lines expressing the human CB1 receptor (Table 3).
# Methods—binding assay in transfected cell lines. The methods used for performing binding assays in transfected cells expressing human CB1 or CB2 receptors are those used above. The CB1 receptor involved a HEK-293 expression system whereas the CB2 receptor was expressed in CHO-K1 cells. […] The incubations and separations were then performed as described above for rat brain membrane preparations.
# as §1, §2
# T2 sequence (P21554 whole entry): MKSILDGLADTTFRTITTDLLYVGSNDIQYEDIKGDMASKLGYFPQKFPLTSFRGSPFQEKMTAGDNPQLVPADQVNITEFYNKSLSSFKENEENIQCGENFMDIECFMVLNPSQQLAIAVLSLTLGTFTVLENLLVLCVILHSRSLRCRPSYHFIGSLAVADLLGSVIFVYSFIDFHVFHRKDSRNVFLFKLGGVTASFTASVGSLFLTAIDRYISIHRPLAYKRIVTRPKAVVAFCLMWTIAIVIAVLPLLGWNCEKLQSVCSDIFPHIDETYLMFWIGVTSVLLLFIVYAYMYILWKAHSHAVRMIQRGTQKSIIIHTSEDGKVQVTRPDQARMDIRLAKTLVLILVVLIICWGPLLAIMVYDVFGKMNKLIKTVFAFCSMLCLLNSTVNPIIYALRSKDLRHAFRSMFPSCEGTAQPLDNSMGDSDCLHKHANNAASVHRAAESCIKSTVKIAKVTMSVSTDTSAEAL
Compound,"Max. Disp. %, 3H-CP55940","Max. Disp. %, 3H-SR141716A","Max. Disp. %, 3H-WIN55212-2"
CCCCCCC(C)NC(=O)c1nn(-c2ccc(Cl)cc2Cl)c(-c2ccc(Cl)cc2)c1C (centres unmarked) [AKS-10262-4],79.5%,91.5%,0.0%

# Same assay, conditions: Ki, displacement of 3H-CP55940
row,Compound,Ki
1,CCCCCCC(C)NC(=O)c1nn(-c2ccc(Cl)cc2Cl)c(-c2ccc(Cl)cc2)c1C (centres unmarked) [AKS-10262-4],26.3 nM

# Same assay, conditions: Ki, displacement of 3H-CP55940, human CB1 transfected cells; 3H-CP55940; Table 5, parallel synthesis analogs, concentration assumes 100% yield
row,Compound,Ki
1,CCCCCCCCCCCCNC(=O)c1nn(-c2ccc(Cl)cc2Cl)c(-c2ccc(Cl)cc2)c1C [BT-2],176 nM
2,CCC(C)CC(C)NC(=O)c1nn(-c2ccc(Cl)cc2Cl)c(-c2ccc(Cl)cc2)c1C (centres unmarked) [AKS-10262-6],9.4 nM

# Same assay, conditions: Ki, displacement of 3H-SR141716A
row,Compound,Ki
1,CCCCCCC(C)NC(=O)c1nn(-c2ccc(Cl)cc2Cl)c(-c2ccc(Cl)cc2)c1C (centres unmarked) [AKS-10262-4],2.8 nM

# Same assay, conditions: Ki, displacement of 3H-SR141716A, human CB1 transfected cells; 3H-SR141716A; Table 5, parallel synthesis analogs, concentration assumes 100% yield
row,Compound,Ki
1,CCCCCCCCCCCCNC(=O)c1nn(-c2ccc(Cl)cc2Cl)c(-c2ccc(Cl)cc2)c1C [BT-2],43.5 nM
2,CCC(C)CC(C)NC(=O)c1nn(-c2ccc(Cl)cc2Cl)c(-c2ccc(Cl)cc2)c1C (centres unmarked) [AKS-10262-6],2.2 nM

# Same assay, conditions: Ki, displacement of 3H-WIN55212-2, human CB1 transfected cells; 3H-WIN55212-2; Table 5, parallel synthesis analogs, concentration assumes 100% yield
row,Compound,Ki
1,CCCCCCCCCCCCNC(=O)c1nn(-c2ccc(Cl)cc2Cl)c(-c2ccc(Cl)cc2)c1C [BT-2],13.8 nM
2,CCC(C)CC(C)NC(=O)c1nn(-c2ccc(Cl)cc2Cl)c(-c2ccc(Cl)cc2)c1C (centres unmarked) [AKS-10262-6],23.9 nM

# Same assay, conditions: human CB1 transfected cells; 3H-CP55940; Table 5, parallel synthesis analogs
row,Compound,"Max. Disp. %, 3H-CP55940"
1,CCCCCCCCCCCCNC(=O)c1nn(-c2ccc(Cl)cc2Cl)c(-c2ccc(Cl)cc2)c1C [BT-2],79.5%
2,CCC(C)CC(C)NC(=O)c1nn(-c2ccc(Cl)cc2Cl)c(-c2ccc(Cl)cc2)c1C (centres unmarked) [AKS-10262-6],86.5%

# Same assay, conditions: human CB1 transfected cells; 3H-SR141716A; Table 5, parallel synthesis analogs
row,Compound,"Max. Disp. %, 3H-SR141716A"
1,CCCCCCCCCCCCNC(=O)c1nn(-c2ccc(Cl)cc2Cl)c(-c2ccc(Cl)cc2)c1C [BT-2],89.8%
2,CCC(C)CC(C)NC(=O)c1nn(-c2ccc(Cl)cc2Cl)c(-c2ccc(Cl)cc2)c1C (centres unmarked) [AKS-10262-6],100%

# Same assay, conditions: human CB1 transfected cells; 3H-WIN55212-2; Table 5, parallel synthesis analogs
row,Compound,"Max. Disp. %, 3H-WIN55212-2"
1,CCCCCCCCCCCCNC(=O)c1nn(-c2ccc(Cl)cc2Cl)c(-c2ccc(Cl)cc2)c1C [BT-2],31.4%
2,CCC(C)CC(C)NC(=O)c1nn(-c2ccc(Cl)cc2Cl)c(-c2ccc(Cl)cc2)c1C (centres unmarked) [AKS-10262-6],78.7%
